Test results published in patent publication US8268990B2, “Compounds” (AstraZeneca AB, priority 2007, dated 2012).

Biological target: T1, Recombinant human TLR7 (Homo sapiens, UniProt Q9NYK1)
T1 construct: expressed in transfected cells; host or cells: HEK293 cell line stably expressing the pNiFty2-SEAP reporter plasmid; TLR7 in vector pUNO, blasticidin selection
T1 sequence (Q9NYK1 27-1049): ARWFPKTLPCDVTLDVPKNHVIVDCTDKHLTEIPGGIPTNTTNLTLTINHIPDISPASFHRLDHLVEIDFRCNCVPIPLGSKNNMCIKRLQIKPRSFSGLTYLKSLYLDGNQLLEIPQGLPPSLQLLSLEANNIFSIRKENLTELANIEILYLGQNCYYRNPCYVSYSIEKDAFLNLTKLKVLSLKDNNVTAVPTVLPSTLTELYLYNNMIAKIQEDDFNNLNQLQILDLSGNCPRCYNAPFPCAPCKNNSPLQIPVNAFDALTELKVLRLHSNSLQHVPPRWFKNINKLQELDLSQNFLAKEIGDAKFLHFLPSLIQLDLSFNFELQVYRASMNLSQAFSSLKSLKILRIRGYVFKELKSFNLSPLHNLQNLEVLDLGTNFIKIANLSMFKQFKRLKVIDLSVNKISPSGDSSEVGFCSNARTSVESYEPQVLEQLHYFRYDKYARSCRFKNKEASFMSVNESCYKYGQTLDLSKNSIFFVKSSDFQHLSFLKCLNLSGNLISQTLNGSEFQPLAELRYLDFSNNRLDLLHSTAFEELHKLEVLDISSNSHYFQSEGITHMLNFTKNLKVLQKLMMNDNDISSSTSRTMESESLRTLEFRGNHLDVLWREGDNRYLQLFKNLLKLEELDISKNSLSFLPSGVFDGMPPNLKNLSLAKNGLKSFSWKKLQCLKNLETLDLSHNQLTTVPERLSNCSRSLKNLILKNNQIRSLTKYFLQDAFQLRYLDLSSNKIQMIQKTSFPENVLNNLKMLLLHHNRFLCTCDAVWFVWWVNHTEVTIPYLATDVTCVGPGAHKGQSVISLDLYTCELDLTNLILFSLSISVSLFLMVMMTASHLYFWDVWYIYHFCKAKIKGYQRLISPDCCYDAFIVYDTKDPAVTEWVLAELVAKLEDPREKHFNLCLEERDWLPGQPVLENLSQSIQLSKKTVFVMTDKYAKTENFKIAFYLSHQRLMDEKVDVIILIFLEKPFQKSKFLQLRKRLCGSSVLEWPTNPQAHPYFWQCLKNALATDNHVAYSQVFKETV
Assay: Human TLR7 Assay (SEAP reporter);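 note: SEAP driven by an NFkB-responsive composite promoter, pEC50 read at half of each compound's own maximal SEAP induction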
Type: cell-based
Conditions: HEK293 cell line stably expressing human TLR7 and pNiFty2-SEAP reporter; SEAP induction after overnight incubation at 37° C., 0.1% (v/v) DMSO
Source text: Recombinant human TLR7 was stably expressed in a HEK293 cell line already stably expressing the pNiFty2-SEAP reporter plasmid; integration of the reporter gene was maintained by selection with the antibiotic zeocin. The most common variant sequence of human TLR7 (represented by the EMBL sequence AF240467) was cloned into the mammalian cell expression vector pUNO and transfected into this reporter cell-line. Transfectants with stable expression were selected using the antibiotic blasticidin. In this reporter cell-line, expression of secreted alkaline phosphatase (SEAP) is controlled by an NFkB/ELAM-1 composite promoter comprising five NFkB sites combined with the proximal ELAM-1 promoter. TLR signaling leads to the translocation of NFkB and activation of the promoter results in expression of the SEAP gene. TLR7-specific activation was assessed by determining the level of SEAP produced following overnight incubation of the cells at 37° C. with the standard compound in the presence of 0.1% (v/v) dimethylsulfoxide (DMSO). Concentration dependent induction of SEAP production by compounds was expressed as the concentration of compound which produced half of the maximal level of SEAP induction for that compound (pEC50).

| EC50 [nM] | SMILES |
| --- | --- |
| 2510 | CCCCCNc1nc(N)nc(C)c1Cc1ccc(CC(=O)OCCCCN2CCS(=O)(=O)CC2)cc1 [Example 64, 4-(1,1-Dioxidothiomorpholin-4-yl)butyl(4-{[2-amino-4-methyl-6-(pentylamino)pyrimidin-5-yl]methyl}phenyl)acetate] |
| 158 | CCCCCNc1nc(N)nc(C)c1Cc1ccc(CC(=O)OCCC2CCN(C)CC2)cc1 [Example 66, 2-(1-Methylpiperidin-4-yl)ethyl 2-(4-((2-amino-4-methyl-6-(pentylamino)pyrimidin-5-yl)methyl)phenyl)acetate] |
| 794 | CCCCCNc1nc(N)nc(C)c1Cc1ccc(CC(=O)OCC2CCNCC2)cc1 [Example 67, Piperidin-4-ylmethyl 2-(4-((2-amino-4-methyl-6-(pentylamino)pyrimidin-5-yl)methyl)phenyl)acetate] |
| 15.8 | CCCCNc1nc(N)nc(C)c1Cc1ccc(CC(=O)OCC2CCN(C)CC2)cc1OC [Example 72, (1-Methylpiperidin-4-yl)methyl 2-(4-((2-amino-4-(butylamino)-6-methylpyrimidin-5-yl)methyl)-3-methoxyphenyl)acetate] |
| 5.01 | CCCCNc1nc(N)nc(C)c1Cc1ccc(CC(=O)OCCCCN2CCCC2)cc1OC [Example 73, 4-(Pyrrolidin-1-yl)butyl 2-(4-((2-amino-4-(butylamino)-6-methylpyrimidin-5-yl)methyl)-3-methoxyphenyl)acetate] |
| 6.31 | CCC[C@@H](CCO)Nc1nc(N)nc(C)c1Cc1ccc(CC(=O)OC)cc1O [Example 75, (S)-Methyl 2-(4-((2-amino-4-(1-hydroxyhexan-3-ylamino)-6-methylpyrimidin-5-yl)methyl)-3-hydroxyphenyl)acetate] |
| 631 | CCC[C@@H](CO)Nc1nc(N)nc(C)c1Cc1ccc(CC(=O)OCC2CCN(C)CC2)cc1O [Example 76, (S)-(1-Methylpiperidin-4-yl)methyl 2-(4-((2-amino-4-(1-hydroxypentan-2-ylamino)-6-methylpyrimidin-5-yl)methyl)-3-hydroxyphenyl)acetate] |

The remaining lines, values behind:

| SMILES | EC50 [nM] |
| --- | --- |
| CCCCCNc1nc(N)nc(C)c1Cc1ccc(CC(=O)OCCCCN2CCC(N(C)C)CC2)cc1 [Example 68, 4-(4-(Dimethylamino)piperidin-1-yl)butyl 2-(4-((2-amino-4-methyl-6-(pentylamino)pyrimidin-5-yl)methyl)phenyl)acetate] | 631 |
| CCCCNc1nc(N)nc(C)c1Cc1ccc(CC(=O)OCC2CCN(C)CC2)cc1 [Example 69, (1-Methylpiperidin-4-yl)methyl 2-(4-((2-amino-4-(butylamino)-6-methylpyrimidin-5-yl)methyl)phenyl)acetate] | 126 |
| CCC[C@@H](CO)Nc1nc(N)nc(C)c1Cc1ccc(CC(=O)OCCCCN(C)C)cc1 [Example 70, (S)-4-(Dimethylamino)butyl 2-(4-((2-amino-4-(1-hydroxypentan-2-ylamino)-6-methylpyrimidin-5-yl)methyl)phenyl)acetate] | 1260 |
| CCC[C@@H](CO)Nc1nc(N)nc(C)c1Cc1ccc(CC(=O)OCC2CCN(C)CC2)cc1OC [Example 71, (S)-(1-Methylpiperidin-4-yl)methyl 2-(4-((2-amino-4-(1-hydroxypentan-2-ylamino)-6-methylpyrimidin-5-yl)methyl)-3-methoxyphenyl)acetate] | 20 |
| CCC[C@@H](CCO)Nc1nc(N)nc(C)c1Cc1ccc(CC(=O)OCC2CCN(C)CC2)cc1F [Example 74, (S)-(1-Methylpiperidin-4-yl)methyl 2-(4-((2-amino-4-(1-hydroxyhexan-3-ylamino)-6-methylpyrimidin-5-yl)methyl)-3-fluorophenyl)acetate] | 39.8 |
| CCCCNc1nc(N)nc(C)c1Cc1ccc(CC(=O)OC)cc1O [Example 77, Methyl 2-(4-((2-amino-4-(butylamino)-6-methylpyrimidin-5-yl)methyl)-3-hydroxyphenyl)acetate] | 63.1 |
